# Experimental data published in patent US12195427B2, “MASP-2 inhibitors and methods of use” (priority 2018, dated 2025).
# Target: MASP-2 CCP2-SP (Homo sapiens (Human), UniProt O00187)
# Experiment: MASP-2 co-crystallization, X-ray crystallography and structure analysis (H-bonds, van der Waals contacts);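 for Ligand-pharmacophore element distance, pharmacophore element C2: distance from averaged pharmacophore element to bound ligand; missing value means element absent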;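 for Ligand-pharmacophore element distance, pharmacophore element C3: distance from averaged pharmacophore element to bound ligand; missing value means element absent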;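 for Ligand-pharmacophore element distance, pharmacophore element C4: distance from averaged pharmacophore element to bound ligand; missing value means element absent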;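 for Ligand-pharmacophore element distance, pharmacophore element C5: distance from averaged pharmacophore element to bound ligand; missing value means element absent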
# Design: van der Waals contact distance, MASP-2 HIS 483 atom CD2 / van der Waals contact distance, MASP-2 HIS 483 atom NE2 / van der Waals contact distance, SER 654 C to compound atom / van der Waals contact distance, SER 654 O to compound atom / van der Waals contact distance, TRP 655 C to compound atom / van der Waals contact distance, MASP-2 GLY 528 atom CA / van der Waals contact distance TRP 655 atom CZ3 / van der Waals contact distance TRP 655 atom N / van der Waals contact distance TRP 655 atom CE3 / van der Waals contact distance GLY 656 atom C / van der Waals contact distance GLY 656 atom CA / van der Waals contact distance GLY 656 atom O / van der Waals contact distance, MASP-2 TYR 607 atom CD1 / van der Waals contact distance, MASP-2 PRO 606 atom O / d(C3,CA1) / d(CA1,N1)2 / d(H4,O1) / d(H4,O2) / d(O1,O2) / d(CA1,O2) / d(CA6,O1) / d(CA6,O2) / d(CA1,C5) / d(O2,H3) / d(N2,C2) / d(CA5,N2) / d(N2,C4) / d(N2,C6) / d(N2,CA3) / d(N2,O3) / d(O4,H2): unit not given beside the values
# Settings: Table A4-1; element C2
# Outline: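 Inhibitor complexes were obtained by soaking crystals of E. coli-derived human MASP-2 CCP2-SP. Synchrotron diffraction at 1.0 wavelength, molecular replacement and partial refinement gave the models; one pose per ligand was chosen for contact analysis.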
# Chain of MASP-2 CCP2-SP (O00187 445-686): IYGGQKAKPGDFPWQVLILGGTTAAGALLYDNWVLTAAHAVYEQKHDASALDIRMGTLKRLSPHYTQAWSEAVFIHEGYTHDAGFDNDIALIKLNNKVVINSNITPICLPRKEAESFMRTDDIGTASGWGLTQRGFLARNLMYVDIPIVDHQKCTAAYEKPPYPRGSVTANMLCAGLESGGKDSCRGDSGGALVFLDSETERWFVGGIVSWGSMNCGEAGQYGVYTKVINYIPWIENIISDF
# Chain of MASP-2 CCP2-SP (O00187 364-432 partner): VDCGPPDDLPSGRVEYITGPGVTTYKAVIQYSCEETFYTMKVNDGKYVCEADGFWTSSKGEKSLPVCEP
row,SMILES,"Ligand-pharmacophore element distance, pharmacophore element C2"
1,CC(=O)Nc1ccc(CCNC(CCc2ccccc2)C(=O)NC(C)C(=O)NCc2ccc(C(=N)N)cc2)cc1.Cl.Cl (centres unmarked) [1345_1],0

# Same assay, conditions: Table A4-1; element C3
row,SMILES,"Ligand-pharmacophore element distance, pharmacophore element C3"
1,CC(=O)Nc1ccc(CCNC(CCc2ccccc2)C(=O)NC(C)C(=O)NCc2ccc(C(=N)N)cc2)cc1.Cl.Cl (centres unmarked) [1345_1],0

# Same assay, conditions: Table A4-1; element C4
row,SMILES,"Ligand-pharmacophore element distance, pharmacophore element C4"
1,CC(=O)Nc1ccc(CCNC(CCc2ccccc2)C(=O)NC(C)C(=O)NCc2ccc(C(=N)N)cc2)cc1.Cl.Cl (centres unmarked) [1345_1],0

# Same assay, conditions: Table A4-1; element C5
row,SMILES,"Ligand-pharmacophore element distance, pharmacophore element C5"
1,CC(=O)Nc1ccc(CCNC(CCc2ccccc2)C(=O)NC(C)C(=O)NCc2ccc(C(=N)N)cc2)cc1.Cl.Cl (centres unmarked) [1345_1],0

# Same assay, conditions: Table A4-1; element C6
row,SMILES,"Ligand-pharmacophore element distance, pharmacophore element C6"
1,CC(=O)Nc1ccc(CCNC(CCc2ccccc2)C(=O)NC(C)C(=O)NCc2ccc(C(=N)N)cc2)cc1.Cl.Cl (centres unmarked) [1345_1],0

# Same assay, conditions: Table A4-1; element C7
row,SMILES,"Ligand-pharmacophore element distance, pharmacophore element C7"
1,CC(=O)Nc1ccc(CCNC(CCc2ccccc2)C(=O)NC(C)C(=O)NCc2ccc(C(=N)N)cc2)cc1.Cl.Cl (centres unmarked) [1345_1],0

# Same assay, conditions: Table A4-1; element CA1
row,SMILES,"Ligand-pharmacophore element distance, pharmacophore element CA1"
1,CC(=O)Nc1ccc(CCNC(CCc2ccccc2)C(=O)NC(C)C(=O)NCc2ccc(C(=N)N)cc2)cc1.Cl.Cl (centres unmarked) [1345_1],0.51

# Same assay, conditions: Table A4-1; element CA2
row,SMILES,"Ligand-pharmacophore element distance, pharmacophore element CA2"
1,CC(=O)Nc1ccc(CCNC(CCc2ccccc2)C(=O)NC(C)C(=O)NCc2ccc(C(=N)N)cc2)cc1.Cl.Cl (centres unmarked) [1345_1],1.2

# Same assay, conditions: Table A4-1; element CA3
row,SMILES,"Ligand-pharmacophore element distance, pharmacophore element CA3"
1,CC(=O)Nc1ccc(CCNC(CCc2ccccc2)C(=O)NC(C)C(=O)NCc2ccc(C(=N)N)cc2)cc1.Cl.Cl (centres unmarked) [1345_1],1.44

# Same assay, conditions: Table A4-1; element CA4
row,SMILES,"Ligand-pharmacophore element distance, pharmacophore element CA4"
1,CC(=O)Nc1ccc(CCNC(CCc2ccccc2)C(=O)NC(C)C(=O)NCc2ccc(C(=N)N)cc2)cc1.Cl.Cl (centres unmarked) [1345_1],0

# Same assay, conditions: Table A4-1; element CA5
row,SMILES,"Ligand-pharmacophore element distance, pharmacophore element CA5"
1,CC(=O)Nc1ccc(CCNC(CCc2ccccc2)C(=O)NC(C)C(=O)NCc2ccc(C(=N)N)cc2)cc1.Cl.Cl (centres unmarked) [1345_1],0

# Same assay, conditions: Table A4-1; element CA6
row,SMILES,"Ligand-pharmacophore element distance, pharmacophore element CA6"
1,CC(=O)Nc1ccc(CCNC(CCc2ccccc2)C(=O)NC(C)C(=O)NCc2ccc(C(=N)N)cc2)cc1.Cl.Cl (centres unmarked) [1345_1],0

# Same assay, conditions: Table A5-1 pharmacophore: distance between elements, S2/S1 region
SMILES,"d(CA1,O1)","d(CA1,O2)","d(H4,O1)","d(H4,O2)","d(O1,O2)"
CC(=O)Nc1ccc(CCNC(CCc2ccccc2)C(=O)NC(C)C(=O)NCc2ccc(C(=N)N)cc2)cc1.Cl.Cl (centres unmarked) [1345_1],4.52,4.49,4.08,3.57,3.48

# Same assay, conditions: Table A5-2 pharmacophore distance, S3/S4 region
SMILES,"d(N2,CA2)","d(N2,CA3)","d(N2,O3)","d(O2,H3)","d(O2,N2)"
CC(=O)Nc1ccc(CCNC(CCc2ccccc2)C(=O)NC(C)C(=O)NCc2ccc(C(=N)N)cc2)cc1.Cl.Cl (centres unmarked) [1345_1],6.14,5.17,8.75,5.98,2.90

# Same assay, conditions: Table A6-1 pharmacophore angle
SMILES,"a(CA1, O1, O2)","a(O1, O2, H4)"
CC(=O)Nc1ccc(CCNC(CCc2ccccc2)C(=O)NC(C)C(=O)NCc2ccc(C(=N)N)cc2)cc1.Cl.Cl (centres unmarked) [1345_1],112.39,126.38

# Same assay, conditions: Table A6-2 pharmacophore angle
SMILES,"a(O1, O2, H3)","a(O1, O2, N2)","a(O2, N2, CA2)","a(O2, N2, CA3)","a(O2, N2, O3)"
CC(=O)Nc1ccc(CCNC(CCc2ccccc2)C(=O)NC(C)C(=O)NCc2ccc(C(=N)N)cc2)cc1.Cl.Cl (centres unmarked) [1345_1],149.79,134.33,153.15,153.91,163.54

# Same assay, conditions: Table A7-1; between pharmacophore elements of the bound compound
SMILES,"Pharmacophore torsion angle a(H4, O1, O2, H3)","Pharmacophore torsion angle a(H4, O1, O2, N2)","Pharmacophore torsion angle a(O1, H4, O2, CA1)"
CC(=O)Nc1ccc(CCNC(CCc2ccccc2)C(=O)NC(C)C(=O)NCc2ccc(C(=N)N)cc2)cc1.Cl.Cl (centres unmarked) [1345_1],39.71,114.36,−62.84

# Same assay, conditions: Table A7-2; between pharmacophore elements of the bound compound
SMILES,"Pharmacophore torsion angle a(O1, O2, N2, CA2)","Pharmacophore torsion angle a(O1, O2, N2, CA3)","Pharmacophore torsion angle a(O1, O2, N2, O3)"
CC(=O)Nc1ccc(CCNC(CCc2ccccc2)C(=O)NC(C)C(=O)NCc2ccc(C(=N)N)cc2)cc1.Cl.Cl (centres unmarked) [1345_1],138.94,−27.29,−11.99
